# Data as given in ChEMBL document CHEMBL6115028, “An Amazing 30-Year Journey around the DABO Family: A Medicinal Chemistry Lesson on a Versatile Class of Non-nucleoside HIV-1 Reverse Transcriptase Inhibitors” (J Med Chem, 2025).
# pEC50: −log10 of the molar value.
# Columns and labels:
# [1] = test system: Human immunodeficiency virus 1; assay: Antiviral activity against wild type HIV-1 NL4-3 infected in human MT4 cells assessed as reduction in viral replication; format: functional, organism-based; settings: Human immunodeficiency virus 1, NL4-3, MT4
# [2] = test system: Human immunodeficiency virus 1; assay: Antiviral activity against HIV-1 NL4-3 harboring infected Y181C mutant infected in human MT4 cells assessed as reduction in viral replication; format: functional, organism-based; settings: Human immunodeficiency virus 1, NL4-3, MT4
# [3] = Cytotoxicity against African green monkey Vero cells assessed as reduction in cell viability incubated for 72 hrs by MTT assay; format: toxicity, cell-based; settings: chlorocebus sabaeus
# [4] = test system: Human immunodeficiency virus 1; assay: Antiviral activity against HIV-1 harboring protease V82F mutant infected in human C8166 cells assessed as inhibition of viral replication measured for 72 hrs by spectrophotometric MTT assay; format: functional, organism-based; settings: Human immunodeficiency virus 1, C8166, 72 h
# [5] = test system: Human immunodeficiency virus 1; assay: Antiviral activity against HIV-1 IIIB infected in human C8166 cells assessed as reduction in virus -induced cytopathic effect measured after 48 hrs by CellTiter-Glo Luminescent cell viability assay; format: functional, organism-based; settings: Human immunodeficiency virus 1, IIIB, C8166, 48 h
# C8166 = assay: Cytotoxicity against human C8166 cells assessed as reduction in cell viability; format: functional
# [6] = Selectivity index, ratio of CC50 for cytotoxicity against human MT2 cells to EC50 for antiviral activity against HIV-1 IIIB infected in human MT2 cells; format: toxicity, cell-based; settings: read-out: Ratio CC50/EC50
# [7] = Cytotoxicity against african green monkey Vero cells assessed as reduction in cell viability measured after 72 hrs by MTT assay; format: toxicity, cell-based; settings: chlorocebus sabaeus
# [8] = test system: Human immunodeficiency virus 1; assay: Antiviral activity against wild-type HIV-1 IIIB infected in human MT4 cells assessed as reduction in virus-induced cytopathic effect incubated for 5 days by MTT assay; format: functional, organism-based; settings: Human immunodeficiency virus 1, IIIB, MT4, 120 h
# [9] = test system: Human immunodeficiency virus 1; assay: Antiviral activity against HIV-1 IIIB infected in human C8166 cells; format: functional, organism-based; settings: Human immunodeficiency virus 1, IIIB
# [10] = test system: Human immunodeficiency virus 2; assay: Antiviral activity against HIV-2 ROD infected in human MT4 cells assessed as virus-induced cytopathic effect incubated for 5 days by MTT assay; format: functional, organism-based; settings: Human immunodeficiency virus 2, ROD, MT4, 120 h
# MT4 [11] = assay: Cytotoxicity against human MT4 cells assessed as reduction in cell growth incubated for 3 days by CellTiter-Glo luminescent assay; format: functional; settings: MT4, 72 h, time 3 day
# MT4 [12] = assay: Cytotoxicity against human MT4 cells assessed as reduction in cell growth after 5 days by MTT assay; format: functional; settings: MT4, 120 h, time 5 day
# [13] = Selectivity index, ratio of CC50 for human MT4 cells to EC50 for antiviral activity against HIV1 infected in human MT4 cells; format: toxicity, cell-based; settings: read-out: Ratio CC50/EC50
# MT4 [14] = assay: Cytotoxicity against human MT4 cells; format: functional
# [15] = test system: Human immunodeficiency virus 1; assay: Antiviral activity against HIV-1 NL4-3 infected in human MT2 cells assessed as reduction in viral replication assessed as inhibition of viral growth incubated for 72 hrs by ELISA; format: functional, organism-based; settings: Human immunodeficiency virus 1, NL4-3, MT2, 72 h
# MT4 [16] = assay: Cytotoxicity against human MT4 cells assessed as reduction in cell viability incubated for 4 days by MTT assay; format: functional; settings: MT4, 96 h, time 4 day
# [17] = test system: Human immunodeficiency virus 1; assay: Antiviral activity against […] infected in human MT4 cells assessed as reduction in cytopathic effect measured after 4 days by MTT assay; format: functional, organism-based; settings: Human immunodeficiency virus 1, IIIB, MT4, 96 h
# [18] = test system: Human immunodeficiency virus 1; assay: Antiviral activity against wild type HIV-1 IIIB harboring Y181C/K103N double mutant infected in human MT4 cells assessed as reduction in cytopathic effect measured after 4 days by MTT assay; format: functional, organism-based; settings: Human immunodeficiency virus 1, IIIB, MT4, 96 h
# [19] = read-out: ED50 (the source's name)
smiles,measurement,setting,value
COC(=O)[C@H](C)NP(=O)(Oc1ccccc1)Oc1nc(N(C)C)nc(C(C)c2c(F)cccc2F)c1C (stereo partly specified),pEC50,[1]; read-out: EC50,8.15
same,pEC50,[2],5.92
CSCSc1nc(Cc2c(F)cccc2Cl)cc(=O)[nH]1,CC50 at 72 h,[3],55.3 µM
same,pEC50,[4],6.40
Cc1c(OP(=O)(N[C@@H](C)C(=O)OCc2ccccc2)Oc2ccccc2)nc(N(C)C)nc1C(C)c1c(F)cccc1F (stereo partly specified),pEC50,[1]; read-out: EC50,8.00
same,pEC50,[2],5.96
CC(C)CCSc1nc(Cc2c(F)cccc2F)cc(=O)[nH]1,pEC50,[5],7.30
same,CC50,C8166,> 200 µM
same,selectivity ratio,[6],> 4000
same,CC50 at 72 h,[7],> 200 µM
CCCCNc1nc(C(C)c2c(F)cccc2F)c(C)c(=O)[nH]1 (stereo unspecified),pEC50,[8],7.40
CSCSc1nc(Cc2c(Cl)cccc2Cl)cc(=O)[nH]1,CC50 at 72 h,[3],48.1 µM
same,pEC50,[4],5.89
Cc1cc(C)cc(OCCSc2nc(Cc3ccccc3)cc(=O)[nH]2)c1,CC50 at 72 h,[3],72.9 µM
same,pEC50,[4],5.89
COc1ccc(C(=O)CSc2nc(Cc3ccccc3)c(C)c(=O)[nH]2)cc1,pEC50,[9],6.43
same,pEC50,[10],6.38
same,CC50,MT4 [11],> 290 µM
CCCCNc1nc(Cc2c(F)cccc2F)c(C)c(=O)[nH]1,pEC50,[8],8.22
same,CC50,MT4 [12],70 µM
Cc1c([C@H](C)c2c(F)cccc2F)nc(SC2CCCCC2)[nH]c1=O,selectivity ratio,[13],> 10000
same,CC50 at 72 h,[7],> 200 µM
Cc1cc(C)cc(OCCSc2nc(Cc3c(F)cccc3F)cc(=O)[nH]2)c1,CC50 at 72 h,[3],90 µM
same,pEC50,[4],4.95
Cc1c(Cc2c(F)cccc2F)nc(NC2CCCCC2)[nH]c1=O,pEC50,[8],8.30
same,CC50,MT4 [12],200 µM
CC(C)c1c(Cc2ccccc2)nc(SCC(=O)c2ccc(F)cc2)[nH]c1=O,pEC50,[9],7.11
same,pEC50,[10],4.49
same,CC50,MT4 [11],186 µM
CC(=O)c1ccc(Cn2cc(CSc3nc(Cc4c(Cl)cccc4Cl)c(C)c(=O)[nH]3)nn2)cc1,CC50,MT4 [14],32.5 µM
CCSCSc1nc(=O)c(CC)c(Cc2cccc3ccccc23)[nH]1,pEC50,[1]; [19],5.57
CCCNc1nc(Cc2c(F)cccc2F)c(C)c(=O)[nH]1,pEC50,[8],7.70
same,CC50,MT4 [12],> 200 µM
CCc1c(Cc2ccccc2)nc(SC(C)CC)[nH]c1=O (stereo unspecified),pEC50,[15],7.40
CSCSc1nc(Cc2c(F)cccc2F)cc(=O)[nH]1,CC50 at 72 h,[3],> 200 µM
same,pEC50,[4],6.10
CCc1c(Cc2cccc3ccccc23)n(CSC)c(=O)[nH]c1=O,pEC50,[1]; [19],6.43
CCC(C)Sc1nc(Cc2ccccc2)c(C(C)C)c(=O)[nH]1 (stereo unspecified),pEC50,[15],7.00
Cc1c(Cc2ccccc2)nc(SCC(=O)c2ccc(F)cc2)[nH]c1=O,pEC50,[9],6.74
same,pEC50,[10],3.56
same,CC50,MT4 [11],275 µM
CSCSc1nc(Cc2ccccc2)cc(=O)[nH]1,pEC50,[15],4.70
CCc1c(Cc2cccc3ccccc23)[nH]c(SCSC)nc1=O,pEC50,[1]; [19],5.34
CCc1c(Cc2ccccc2)nc(SCC(=O)c2ccc(F)cc2)[nH]c1=O,pEC50,[9],7.15
same,pEC50,[10],4.79
same,CC50,MT4 [11],240 µM
Cc1c(OP(=O)(N[C@@H](C)C(=O)OC(C)(C)C)Oc2ccccc2)nc(N(C)C)nc1C(C)c1c(F)cccc1F (stereo partly specified),pEC50,[1]; read-out: EC50,8.10
same,pEC50,[2],6.00
CCOCn1c(Cc2cccc3ccccc23)c(CC)c(=O)[nH]c1=O,pEC50,[1]; [19],7.30
Cc1c(O)nc(SCC(C)C)nc1C(C)c1c(F)cccc1F (stereo unspecified),selectivity ratio,[13],28600
same,CC50 at 72 h,[7],200 µM
CC(c1cc(O)nc(SC2CCCCC2)n1)c1c(F)cccc1F (stereo unspecified),selectivity ratio,[13],> 6670
same,CC50 at 72 h,[7],> 200 µM
CCCCSc1nc(O)c(C)c(C(C)c2c(F)cccc2F)n1 (stereo unspecified),selectivity ratio,[13],14000
same,CC50 at 72 h,[7],112 µM
CCC(C)Sc1nc(O)cc(C(C)c2c(F)cccc2F)n1 (stereo unspecified),selectivity ratio,[13],> 6670
same,CC50 at 72 h,[7],> 200 µM
Cc1c(O)nc(SC2CCCCC2)nc1C(C)c1c(F)cccc1F (stereo unspecified),selectivity ratio,[13],> 33300
same,CC50 at 72 h,[7],> 200 µM
CCC(C)Sc1nc(O)cc(Cc2c(F)cccc2F)n1 (stereo unspecified),pEC50,[5],7.40
same,CC50,C8166,> 200 µM
same,selectivity ratio,[6],> 5000
same,CC50 at 72 h,[7],> 200 µM
Cc1c(C(C)c2c(F)cccc2F)nc(N(C)C)[nH]c1=O (racemic),CC50,MT4 [16],> 100 µM
same,pEC50,[17],6.15
same,pEC50,[18],6.05
